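All cell lines were grown in 96-well plates and treated with compound for 48 hours. Abbreviation: GI50, concentration required for 50% inhibition of growth. At the TGI there is no net growth.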
Tests used:
Assay in all cases: growth of human tumour cells (NCI), 48 h
786-0 renal = system: 786-0 renal
BT-549 breast = system: BT-549 breast
CAKI-1 renal = system: CAKI-1 renal
CCRF-CEM leukemia = system: CCRF-CEM leukemia
HCC-2998 colon = system: HCC-2998 colon
HCT-15 colon = system: HCT-15 colon
HOP-92 NSCLC = system: HOP-92 NSCLC
KM12 colon = system: KM12 colon
M14 melanoma = system: M14 melanoma
MCF7 breast = system: MCF7 breast
MDA-MB-231 breast = system: MDA-MB-231 breast
OVCAR-4 ovarian = system: OVCAR-4 ovarian
RXF 393 renal = system: RXF 393 renal
SF-295 CNS = system: SF-295 CNS
SK-MEL-5 melanoma = system: SK-MEL-5 melanoma
SK-OV-3 ovarian = system: SK-OV-3 ovarian
SNB-19 CNS = system: SNB-19 CNS
SR leukemia = system: SR leukemia
UO-31 renal = system: UO-31 renal

| Structure (SMILES) | TGI (786-0 renal) [µM] | TGI (BT-549 breast) [µM] | TGI (CAKI-1 renal) [µM] | TGI (CCRF-CEM leukemia) [µM] | TGI (HCC-2998 colon) [µM] | TGI (HCT-15 colon) [µM] | TGI (HOP-92 NSCLC) [µM] | TGI (KM12 colon) [µM] | TGI (M14 melanoma) [µM] | TGI (MCF7 breast) [µM] | TGI (MDA-MB-231 breast) [µM] | TGI (OVCAR-4 ovarian) [µM] | TGI (RXF 393 renal) [µM] | TGI (SF-295 CNS) [µM] | TGI (SK-MEL-5 melanoma) [µM] | TGI (SK-OV-3 ovarian) [µM] | TGI (SNB-19 CNS) [µM] | TGI (SR leukemia) [µM] | TGI (UO-31 renal) [µM] | GI50 (CCRF-CEM leukemia) [µM] |
| --- | --- | --- | --- | --- | --- | --- | --- | --- | --- | --- | --- | --- | --- | --- | --- | --- | --- | --- | --- | --- |
| CC1(C)N(OC2CCCCO2)C(c2ccccc2)C(c2ccccc2)=[N+]1[O-] (stereo unspecified) | > 100 | > 100 | > 100 | > 100 | > 100 | > 100 | > 100 | > 100 | > 100 | > 100 | > 100 | > 100 | > 100 | > 100 | > 100 | > 100 | > 100 | > 100 | > 100 | – |
| COc1cc2c(c(N)c1OC)C(=O)/C(=C/c1cc(C)c(O)c(C)c1)C2 | > 100 | > 100 | > 100 | 11.7 | > 100 | > 100 | > 100 | 1.82 | > 100 | > 100 | > 100 | > 100 | > 100 | > 55.6 | > 32.7 | > 100 | > 100 | > 100 | > 100 | – |
| CC(C)=CCC[C@](C)(O)[C@H]1CC[C@]2(C)[C@@H]1[C@H](O)C[C@@H]1[C@@]3(C)CC[C@H](O[C@@H]4O[C@H](CO)[C@@H](O)[C@H](O)[C@H]4O)C(C)(C)[C@@H]3CC[C@]12C | 36 | 34.3 | 34.2 | 43.8 | 49.4 | 32.8 | 33.7 | 33.3 | 46 | 32.2 | 36.4 | 38.1 | 32.2 | 39.6 | 32.1 | 33 | 35.4 | 28.8 | 31.1 | – |
| O=C(CC(=O)N(C(=O)c1ccccc1)c1ccc(Cl)cc1)N/N=C\c1ccccc1O | > 100 | > 100 | > 100 | > 100 | > 100 | > 100 | 75 | > 100 | > 100 | > 100 | > 100 | > 100 | > 100 | 80.9 | > 100 | 54.3 | > 100 | > 100 | > 100 | – |
| OCCOCCN1CCN(c2nc(N3CCCC3)c3nc(Cl)c(NCc4ccccc4)nc3n2)CC1 | 26.5 | 29.1 | 31.1 | 32.9 | 15 | 15.3 | 26.2 | 26.8 | 24.8 | 29.5 | 32.7 | 30.8 | 11.8 | 29.3 | 17.9 | 31.9 | 29.8 | 17.8 | 21.7 | – |
| Oc1ccc2ccccc2c1-c1c(Nc2ccccc2)ccc2ccccc12 | 34.2 | 30.1 | 28.1 | 44.7 | 29.2 | > 56.4 | > 46.5 | 37.3 | 24.4 | > 42.7 | 28.1 | 25.4 | 34.3 | 30.5 | 29 | 18.7 | 37.4 | 51.6 | 29.2 | – |
| O=C(O)CN1CCNCCN(CC(=O)O)CCNCC1 | > 100 | > 100 | > 100 | > 100 | > 100 | > 74.7 | > 100 | > 100 | > 100 | > 100 | > 100 | > 100 | > 100 | > 100 | 21.9 | > 100 | > 100 | > 96.5 | > 100 | – |
| O=C(O)Cn1nnc2c(=O)[nH][nH]c(=O)c21 | > 100 | > 100 | > 100 | > 100 | > 100 | > 100 | > 100 | > 100 | > 100 | > 100 | > 100 | > 10 | – | > 100 | > 100 | – | > 100 | > 100 | > 100 | – |
| CC(Oc1ccccc1)C(=O)NN (stereo unspecified) | > 100 | > 100 | > 100 | > 100 | > 100 | > 100 | > 100 | > 100 | > 100 | > 100 | > 100 | > 100 | > 100 | > 100 | > 100 | > 100 | > 100 | > 100 | > 100 | – |
| O/N=C(\C=N\O)c1ccc2c(c1)Sc1ccccc1O2 | 38.6 | 40.7 | 61.1 | 7.43 | 41.9 | 75.2 | 36.8 | > 100 | 39.6 | 40.6 | 38.4 | 74.2 | 36 | 46.3 | – | 40.2 | 67.8 | 75.9 | 54 | – |
| CC1=NN(C(=O)CC(=O)Nc2ccccc2C)C(=O)C1N=Nc1ccc(S(=O)(=O)c2ccc(N=NC3C(=O)N(C(=O)CC(=O)Nc4ccccc4C)N=C3C)cc2)cc1 (stereo unspecified) | > 100 | > 100 | > 100 | > 100 | > 100 | > 100 | > 100 | > 100 | > 100 | > 100 | > 100 | > 100 | > 100 | > 100 | > 100 | > 100 | > 100 | > 100 | > 100 | – |
| CC(=O)O[C@H]1C(=O)[C@@]2(C)[C@H]([C@H](OC(=O)c3ccccc3)[C@]3(O)C[C@H](OC(=O)[C@H](O)[C@@H](NC(=O)c4ccccc4)C4CCCCC4)C(C)=C1C3(C)C)[C@]1(OC(C)=O)CO[C@@H]1C[C@@H]2O | > 100 | > 100 | > 100 | > 62.7 | 16.4 | > 51.1 | 64.1 | 37.1 | 24 | 25.9 | 28.6 | 50.5 | 0.013 | 0.0606 | 14.9 | – | > 100 | 25.1 | 36.2 | – |
| O=c1c2c(sc3ccccc13)NCN(CCc1ccccc1)C2 | > 100 | > 100 | > 100 | > 100 | 56.9 | – | > 100 | > 100 | 84.4 | > 100 | 77.5 | > 100 | > 100 | 43.5 | 29 | > 100 | > 100 | > 100 | > 100 | – |
| C[C@@H](C(=O)O)c1ccc(-c2ccccc2)c(F)c1 | > 100 | > 100 | > 100 | > 100 | > 100 | > 100 | > 100 | > 100 | > 100 | > 100 | > 100 | > 100 | > 100 | > 100 | > 100 | > 100 | > 100 | > 100 | > 100 | – |
| Nc1ccn([C@H]2CO[C@@H](CO)O2)c(=O)n1 | > 100 | > 100 | 23 | > 92 | > 100 | > 100 | 43.8 | > 100 | 19.1 | > 100 | > 100 | > 100 | > 83.3 | > 100 | > 100 | > 100 | > 100 | > 100 | > 75.1 | – |
| COC(=O)c1cc(C)n2c1CS[C@@H]2c1ccccc1 | > 100 | 82.8 | > 100 | > 100 | – | > 100 | 76.8 | > 100 | 73.4 | > 100 | > 100 | > 100 | 55.5 | > 100 | 44.3 | > 100 | > 100 | 54.6 | > 100 | – |
| CCCCCCNC(=O)c1cc(C#Cc2cc(OC)ccc2OC)ccc1OC | > 100 | > 100 | > 100 | > 100 | 6.25 | > 100 | > 100 | > 100 | > 100 | > 100 | > 100 | > 100 | – | > 100 | > 100 | > 100 | > 100 | > 100 | > 100 | 7.9 |
| CCCCOP(=O)(OCCCC)/C(C#N)=C/c1ccc(C)o1 | > 100 | 43 | > 100 | – | > 100 | > 100 | 79.6 | > 100 | 78.5 | > 100 | > 100 | > 100 | 86.1 | > 100 | 76.1 | > 100 | > 100 | > 100 | – | – |
| COc1ccc(-c2nc(N(C)C)c3ccccc3n2)cc1 | 32.3 | 43.5 | > 100 | – | 23.5 | 37.8 | 68.8 | 68.8 | 44.2 | 24.1 | 96.5 | > 100 | 24.7 | 46.3 | 26.2 | 48.2 | > 100 | 29.1 | 15.8 | – |
| C/C(=N\Nc1nc2ccccc2[nH]1)c1ccncn1 | > 100 | > 100 | > 49 | > 36.6 | > 79.5 | > 100 | 0.293 | 35.9 | – | > 39.2 | > 100 | > 100 | – | > 44.6 | 13.4 | 64.3 | > 100 | > 100 | – | – |
| COc1ccc(/C=C/C(=O)c2nc3ccccc3[nH]2)cc1 | 32.2 | 55.2 | > 100 | > 100 | – | > 40.5 | 35.6 | 19.8 | > 59.1 | > 81 | 48.9 | 60.1 | 35.3 | > 84.8 | 31.8 | 86.1 | 77.3 | > 27.1 | 34.6 | – |
| COc1ccc(C(=O)/C=C2\c3ccccc3C(=O)N2C)cc1 | > 100 | > 100 | > 100 | > 100 | – | > 100 | 75.7 | > 100 | > 100 | > 100 | > 100 | > 100 | 82.8 | > 100 | > 100 | > 100 | > 100 | > 100 | > 100 | – |
| COC(=O)C(/C(=N/N)C(=O)Nc1ccc(C)c(C)c1)c1nc2ccc(Cl)cc2[nH]c1=O (stereo unspecified) | > 100 | > 100 | > 100 | > 100 | > 100 | > 100 | > 100 | > 100 | > 100 | > 100 | > 100 | > 100 | > 100 | > 100 | > 100 | > 100 | – | > 100 | > 100 | – |
| COc1cc(CNc2nc3ccccc3nc2-c2cccs2)cc(OC)c1OC | > 100 | 12.9 | 28.4 | 52.2 | > 100 | > 100 | 10.1 | > 100 | – | > 100 | > 100 | 23.4 | > 100 | > 100 | 28.8 | > 100 | – | > 100 | 25 | – |
| COCC[N+](CCNC(=O)c1cccc2c(N)c3cccc(C)c3nc12)(CCOC)Cc1ccc([N+](=O)[O-])cc1 | > 100 | 64.5 | > 100 | 58.1 | 27.2 | > 100 | 94.6 | 30.9 | > 100 | 89.8 | 58.8 | > 100 | – | > 100 | 22.9 | – | > 100 | 35.3 | > 100 | – |

Reference: PubChem BioAssay (NCI)
